What was measured:
[1] = cited from earlier work
[2] = tested on: breast cancer cells (BRCA1, OMIM Number 113705); test: AS-induced toxicity to breast cancer cells, crystal violet cell number; type: cell-based, human
[3] = tested on: normal human fibroblasts; test: AS-induced toxicity to normal human fibroblasts, crystal violet cell number; type: cell-based; conditions: for effect on AS cytotoxicity to human fibroblasts: ascorbic acid 5 mM, POBN 10 mM, DMSO 0.2 M in incubation medium
Protocol: Human fetal fibroblasts were cultured as described herein. Briefly, human fetal hearts of gestational age 16-24 weeks are aseptically obtained after elective termination of normal pregnancy by dilatation and evacuation. The aorta is then cannulated for continuous perfusion of the coronary arteries with calcium-free Tyrode's solution (117 mM NaCl, 5.7 mM KCl, 11 mM glucose, 4.4 mM NaHCO3, 1.5 mM KH2PO4, 1.7 mM MgCl2, HEPES 20 mM, pH 7.4) containing 1 U/ml of Na-heparin at 37° C., bubbled with 100% O2 as described for the Langendorff preparation. After 15 min of washing to clear the blood from the heart, fresh calcium-free Tyrode's solution containing 1.5 mg/ml collagenase A (type III) is recirculated for approximately 20 minutes. The heart dissociates spontaneously, allowing cells to slowly drip and fall on a Petri dish containing 0.25% trypsin, 1 mM EDTA in HBSS. Clumps of cells are dissociated and the resulting suspension poured over a cell strainer. Cells are centrifuged and the pellet resuspended in 20 ml of culture medium [DME supplemented with 10% fetal bovine serum, 50 U/ml PCN, 50 U/ml streptomycin, […] gentamicin, 1 mM non-essential amino acid (Gibco Laboratories), 0.1 mM essential medium vitamins (Gibco Laboratories), 2 mM glutamine, 0.1 mM Na pyruvate]. To obtain primary cardiac fibroblasts, the isolate will be plated in flasks (20 min at 37° C.). The fibroblasts will be passaged at 12×10^6 cells per 75 cm2 culture flask and grown in 5% CO2 at 37° C. After 3 passages in culture, the fibroblast stain using the fibroblast-specific antibody (monoclonal anti-human fibroblast surface protein, Clone 1B10).
The concentration of the hydroxylamine was determined by co-injection of 4-methylpicoline as described in Analytical Chemistry, Stoyanovsky, et al., supra. […] Normal human fibroblasts (800 cells per plate) were treated for 30 minutes at 37° C. with AS in 50 mM phosphate buffer (pH 6.3, open circles; pH 7.4, filled circles) containing 0.15 M NaCl and 0.2 mM CaC12. Thereafter, the fluid was removed, the cells were covered with minimal essential medium containing 10% fetal bovine serum (Sigma Chem. Co.,St. Louis, Mo.) and incubated at 37° C.; after 4 hours, the cell number was determined by the crystal violet method as known by those skilled in the art. Results are from four independent experiments. Each experimental point represents the mean of triplicate±SEM % (Mean value±standard error; n=3) of controls. […] The cells were treated as indicated in FIG. 5B except that in the incubation medium was included (1) ascorbic acid (5 mM) plus SOD (superoxide dismuthase)(300 U per ml) plus catalase (500 U per ml) filled circles, all purchased from Sigma Chem. Co.; (2) POBN (10 mM) open circles; or 3. DMSO ([…]) filled triangles.

SMILES: [Na+].[Na+].[O-][N+]([O-])=NO [AS, sodium trioxodinitrate]
- stability ([1]; alkaline solutions): relatively stable
- pK1 ([1]; aqueous solution): 3.0
- pK2 ([1]; aqueous solution): 9.35
- rate of decomposition ([1]; pH interval of 3.5 to 8.5): rapid, proton-independent
- death of treated cells ([2]; pH 6.2, 30 minutes at 37° C. with AS, cell number after 4 hours): approximately 70%
- cell toxicity ([2]; pH 7.4): not observed
- toxicity to normal human fibroblasts ([3]; acidic conditions): toxic
- toxicity to normal human fibroblasts ([3]; non-acidic conditions): not toxic
- cell toxicity ([3]; pH 7.4): not observed

SMILES: C[S+](C)[O-] [DMSO, dimethyl sulfoxide, reference compound]
- effect on AS cytotoxicity to human fibroblasts [3]: protective effect

SMILES: CC(C)(C)[N+]([O-])=Cc1cc[n+]([O-])cc1 [POBN, alpha-(4-Pyridyl-1-oxide)-N-tert-butylnitrone, reference compound]
- effect on AS cytotoxicity to human fibroblasts [3]: protective effect

SMILES: O=C1O[C@H]([C@@H](O)CO)C(O)=C1O [ascorbic acid, reference compound]
- effect on AS cytotoxicity to human fibroblasts [3]: protective effect
